Measured values published in PubChem BioAssay AID2060326 (Molecular Pharmacology Branch, DTP, NCI, 2025).

Tested on: MDA-MB-468 multi-cell spheroids, viability
Test: Anticancer human tumor MDA-MB-468 cell line growth inhibition [IpAb];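 further: spheroids exposed to agents for seven days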;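 on viability, T/C: 100% = DMSO vehicle control viability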
Conditions: for IC50: curve of first compound; for viability, T/C: stronger effect = lower value
Procedure, shortened: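 Multi-cell spheroids of 60% tumour cells, 25% HUVEC and 15% MSC in ultra-low-attachment U-bottom wells, treated with agents combined with ipatasertib or abemaciclib. Half-log ranges top out near clinical Cmax, or 10 microM when Cmax is unknown.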

[1] = second compound 0.1 µM, first compound 0.0316 µM
[2] = second compound 0.1 µM, first compound 0.1 µM
[3] = second compound 0.1 µM, first compound 0.316 µM
[4] = second compound 0.1 µM, first compound 1 µM
[5] = second compound 0.1 µM, first compound 3.16 µM
[6] = second compound 0.1 µM, first compound 10 µM
[7] = second compound 0.316 µM, first compound 0.0316 µM
[8] = second compound 0.316 µM, first compound 0.1 µM
[9] = second compound 0.316 µM, first compound 0.316 µM
[10] = second compound 0.316 µM, first compound 1 µM
[11] = second compound 0.316 µM, first compound 3.16 µM
[12] = second compound 0.316 µM, first compound 10 µM
[13] = second compound 1 µM, first compound 0.0316 µM
[14] = second compound 1 µM, first compound 0.1 µM
[15] = second compound 1 µM, first compound 0.316 µM
[16] = second compound 1 µM, first compound 1 µM
[17] = second compound 1 µM, first compound 3.16 µM
[18] = second compound 1 µM, first compound 10 µM
[19] = second compound 3.16 µM, first compound 0.0316 µM
[20] = second compound 3.16 µM, first compound 0.1 µM
[21] = second compound 10 µM, first compound 0.0316 µM
[22] = second compound 10 µM, first compound 0.1 µM

Q: What does the source list for `Cn1ncc(Cl)c1-c1cc(C(=O)NC(CN)Cc2cccc(F)c2)sc1Cl` (stereo not given) + CC(C)NCC(C(=O)N1CCN(c2ncnc3c2C(C)CC3O)CC1)c1ccc(Cl)cc1?
A: IC50 (second compound 0.1 µM): 366 nM; IC50 (second compound 0.316 µM): 133 nM; IC50 (second compound 1 µM): 52.2 nM; IC50 (second compound 3.16 µM): < 31.6 nM; IC50 (second compound 10 µM): < 31.6 nM; viability, T/C [1]: 71.1%; viability, T/C [2]: 64%; viability, T/C [3]: 54.8%; viability, T/C [4]: 30.3%; viability, T/C [5]: 16.1%; viability, T/C [6]: 0.14%; viability, T/C [7]: 57.7%; viability, T/C [8]: 51.5%; viability, T/C [9]: 44%; viability, T/C [10]: 31.8%; viability, T/C [11]: 16.6%; viability, T/C [12]: 0.13%; viability, T/C [13]: 50.5%; viability, T/C [14]: 50.9%; viability, T/C [15]: 36.3%; viability, T/C [16]: 28.4%; viability, T/C [17]: 12.6%; viability, T/C [18]: 0.12%; viability, T/C [19]: 31.8%; viability, T/C [20]: 36.1%; viability, T/C (second compound 3.16 µM, first compound 0.316 µM): 31.5%; viability, T/C (second compound 3.16 µM, first compound 1 µM): 21.3%; viability, T/C (second compound 3.16 µM, first compound 3.16 µM): 10.8%; viability, T/C (second compound 3.16 µM, first compound 10 µM): 0.37%; viability, T/C [21]: 18.8%; viability, T/C [22]: 20.4%; viability, T/C (second compound 10 µM, first compound 0.316 µM): 17.4%; viability, T/C (second compound 10 µM, first compound 1 µM): 17.4%; viability, T/C (second compound 10 µM, first compound 3.16 µM): 1.85%; viability, T/C (second compound 10 µM, first compound 10 µM): 0.18%

Q: What does the source list for `Cn1ncnc1[C@H]1c2n[nH]c(=O)c3cc(F)cc(c23)N[C@@H]1c1ccc(F)cc1` + CC(C)NCC(C(=O)N1CCN(c2ncnc3c2C(C)CC3O)CC1)c1ccc(Cl)cc1?
A: IC50 (second compound 0.1 µM): > 100 nM; IC50 (second compound 0.316 µM): > 100 nM; IC50 (second compound 1 µM): 17.9 nM; IC50 (second compound 3.16 µM): < 0.316 nM; IC50 (second compound 10 µM): < 0.316 nM; viability, T/C (second compound 0.1 µM, first compound 0.000316 µM): 101%; viability, T/C (second compound 0.1 µM, first compound 0.001 µM): 102%; viability, T/C (second compound 0.1 µM, first compound 0.00316 µM): 86.9%; viability, T/C (second compound 0.1 µM, first compound 0.01 µM): 73.8%; viability, T/C [1]: 85.8%; viability, T/C [2]: 65.7%; viability, T/C (second compound 0.316 µM, first compound 0.000316 µM): 62%; viability, T/C (second compound 0.316 µM, first compound 0.001 µM): 70.7%; viability, T/C (second compound 0.316 µM, first compound 0.00316 µM): 62.1%; viability, T/C (second compound 0.316 µM, first compound 0.01 µM): 60.2%; viability, T/C [7]: 55.5%; viability, T/C [8]: 57.7%; viability, T/C (second compound 1 µM, first compound 0.000316 µM): 60.8%; viability, T/C (second compound 1 µM, first compound 0.001 µM): 59.2%; viability, T/C (second compound 1 µM, first compound 0.00316 µM): 55.1%; viability, T/C (second compound 1 µM, first compound 0.01 µM): 54.2%; viability, T/C [13]: 46.2%; viability, T/C [14]: 41.8%; viability, T/C (second compound 3.16 µM, first compound 0.000316 µM): 38.9%; viability, T/C (second compound 3.16 µM, first compound 0.001 µM): 37.8%; viability, T/C (second compound 3.16 µM, first compound 0.00316 µM): 40%; viability, T/C (second compound 3.16 µM, first compound 0.01 µM): 34.9%; viability, T/C [19]: 34%; viability, T/C [20]: 26.6%; viability, T/C (second compound 10 µM, first compound 0.000316 µM): 19.3%; viability, T/C (second compound 10 µM, first compound 0.001 µM): 22.5%; viability, T/C (second compound 10 µM, first compound 0.00316 µM): 18.6%; viability, T/C (second compound 10 µM, first compound 0.01 µM): 18.8%; viability, T/C [21]: 16%; viability, T/C [22]: 15.6%

Q: Which results are given for `C=CCn1c(=O)c2cnc(Nc3ccc(N4CCN(C)CC4)cc3)nc2n1-c1cccc(C(C)(C)O)n1` + CCN1CCN(Cc2ccc(Nc3ncc(F)c(-c4cc(F)c5nc(C)n(C(C)C)c5c4)n3)nc2)CC1?
A: IC50 (second compound 0.01 µM): 467 nM; IC50 (second compound 0.0316 µM): 461 nM; IC50 (second compound 0.1 µM): 408 nM; IC50 (second compound 0.316 µM): 560 nM; IC50 (second compound 1 µM): 417 nM; viability, T/C (second compound 0.01 µM, first compound 0.0316 µM): 108%; viability, T/C (second compound 0.01 µM, first compound 0.1 µM): 75.5%; viability, T/C (second compound 0.01 µM, first compound 0.316 µM): 72.8%; viability, T/C (second compound 0.01 µM, first compound 1 µM): 6.04%; viability, T/C (second compound 0.01 µM, first compound 3.16 µM): 2.55%; viability, T/C (second compound 0.01 µM, first compound 10 µM): 2.34%; viability, T/C (second compound 0.0316 µM, first compound 0.0316 µM): 96.3%; viability, T/C (second compound 0.0316 µM, first compound 0.1 µM): 87.9%; viability, T/C (second compound 0.0316 µM, first compound 0.316 µM): 71.3%; viability, T/C (second compound 0.0316 µM, first compound 1 µM): 6.12%; viability, T/C (second compound 0.0316 µM, first compound 3.16 µM): 2.93%; viability, T/C (second compound 0.0316 µM, first compound 10 µM): 2.24%; viability, T/C [1]: 121%; viability, T/C [2]: 93.1%; viability, T/C [3]: 67.3%; viability, T/C [4]: 5.75%; viability, T/C [5]: 3.42%; viability, T/C [6]: 2.91%; viability, T/C [7]: 105%; viability, T/C [8]: 102%; viability, T/C [9]: 89.7%; viability, T/C [10]: 9.63%; viability, T/C [11]: 3.67%; viability, T/C [12]: 2.2%; viability, T/C [13]: 72.3%; viability, T/C [14]: 79.5%; viability, T/C [15]: 63.5%; viability, T/C [16]: 6.76%; viability, T/C [17]: 2.84%; viability, T/C [18]: 1.01%

Q: Which IC50 (second compound 0.01 µM) does the source give for `Cn1cnc2c(F)c(Nc3ccc(Br)cc3Cl)c(C(=O)NOCCO)cc21` + CCN1CCN(Cc2ccc(Nc3ncc(F)c(-c4cc(F)c5nc(C)n(C(C)C)c5c4)n3)nc2)CC1 here?
A: 1130 nM

Q: What about the IC50 (second compound 0.0316 µM) of the same compound?
A: 920 nM

Q: What about the IC50 (second compound 0.1 µM) of the same compound?
A: 798 nM

Q: What about the IC50 (second compound 0.316 µM) of the same compound?
A: 601 nM

Q: What about the IC50 (second compound 1 µM) of the same compound?
A: 152 nM

Q: And the viability, T/C (second compound 0.01 µM, first compound 0.00949 µM)?
A: 102%

Q: What about the viability, T/C (second compound 0.01 µM, first compound 0.03 µM) of the same compound?
A: 79.5%

Q: What about the viability, T/C (second compound 0.01 µM, first compound 0.0949 µM) of the same compound?
A: 77.7%

Q: What about the viability, T/C (second compound 0.01 µM, first compound 0.3 µM) of the same compound?
A: 73.3%

Q: And the viability, T/C (second compound 0.01 µM, first compound 0.949 µM)?
A: 55.1%

Q: And the viability, T/C (second compound 0.01 µM, first compound 3 µM)?
A: 31.5%

Q: What about the viability, T/C (second compound 0.0316 µM, first compound 0.00949 µM) of the same compound?
A: 83.7%

Q: What about the viability, T/C (second compound 0.0316 µM, first compound 0.03 µM) of the same compound?
A: 76.3%

Q: What about the viability, T/C (second compound 0.0316 µM, first compound 0.0949 µM) of the same compound?
A: 73.6%

Q: And the viability, T/C (second compound 0.0316 µM, first compound 0.3 µM)?
A: 60.8%

Q: And the viability, T/C (second compound 0.0316 µM, first compound 0.949 µM)?
A: 52%

Q: And the viability, T/C (second compound 0.0316 µM, first compound 3 µM)?
A: 29.7%

Q: What about the viability, T/C (second compound 0.1 µM, first compound 0.00949 µM) of the same compound?
A: 95.8%

Q: And the viability, T/C (second compound 0.1 µM, first compound 0.03 µM)?
A: 73.6%

Q: What about the viability, T/C (second compound 0.1 µM, first compound 0.0949 µM) of the same compound?
A: 81.3%

Q: And the viability, T/C (second compound 0.1 µM, first compound 0.3 µM)?
A: 58.8%

Q: What about the viability, T/C (second compound 0.1 µM, first compound 0.949 µM) of the same compound?
A: 52.4%

Q: And the viability, T/C (second compound 0.1 µM, first compound 3 µM)?
A: 28.4%

Q: What about the viability, T/C (second compound 0.316 µM, first compound 0.00949 µM) of the same compound?
A: 108%

Q: And the viability, T/C (second compound 0.316 µM, first compound 0.03 µM)?
A: 89.8%

Q: And the viability, T/C (second compound 0.316 µM, first compound 0.0949 µM)?
A: 75.5%

Q: What about the viability, T/C (second compound 0.316 µM, first compound 0.3 µM) of the same compound?
A: 63.3%

Q: What about the viability, T/C (second compound 0.316 µM, first compound 0.949 µM) of the same compound?
A: 51.1%

Q: What about the viability, T/C (second compound 0.316 µM, first compound 3 µM) of the same compound?
A: 16.8%

Q: What about the viability, T/C (second compound 1 µM, first compound 0.00949 µM) of the same compound?
A: 92.7%

Q: What about the viability, T/C (second compound 1 µM, first compound 0.03 µM) of the same compound?
A: 69%

Q: What about the viability, T/C (second compound 1 µM, first compound 0.0949 µM) of the same compound?
A: 58.9%

Q: What about the viability, T/C (second compound 1 µM, first compound 0.3 µM) of the same compound?
A: 43.5%

Q: And the viability, T/C (second compound 1 µM, first compound 0.949 µM)?
A: 18.8%

Q: And the viability, T/C (second compound 1 µM, first compound 3 µM)?
A: 3.98%
